{"source": "patent US8772334B2", "about": "“Synergistic antimicrobial mixtures” (priority 2008, dated 2014)", "key": {"mildew": {"test_system": "mildew", "assay": "Outdoor exposure of wood-plastic composite panels including biocides, mildew growth (ASTM D 3274-94)", "parameters": "key: 10 - No mildew growth; 9 - Very slight growth; 8 - Slight (very good); 7 - Some growth (good); 6 - Moderate growth (considered a failure); 4 - Pronounced growth; 2 - Severe growth; 0 - Very severe growth", "conditions": "WPC panel, Miami; for Mildew Growth 3 Months: 3 months outdoors; for Mildew Growth 6 Months: 6 months outdoors; for Mildew Growth 9 Months: 9 months outdoors; for Mildew Growth 12 Months: 12 months outdoors", "method": "Several candidate biocides were tested in a typical WPC formulation, which is presented below in Table I.\nWPC panels for evaluation were prepared by blending the above ingredients in a drum mixer for 30 to 35 minutes at 30 to 40 rpm and then processing the resulting mixture through a Tek Milacron extruder. This extruder is a twin-screw counter rotating conical unit having four temperature zones, for a total heated length of ten feet (3.0 m), and a 3.38 inch (86 mm) die at the exit. The temperature of extrusion was in the range of 340 to 350 degrees F. (171 to 177 degrees C.) and the WPC boards so produced had dimensions of about 5 feet (152 cm)×5½ inches (14 cm)×1 inch (2.5 cm). The WPC boards were subsequently cut into panels of one foot (30 cm) length.\nWood-plastic composite panels incorporating various biocides were prepared in accordance with the procedure set forth above in Example 1. The panels were evaluated for mildew growth by being exposed to the weather outdoors in Miami, Fla. for one year under a protocol publicly known as ASTM D 3274-94 of ASTM International (originally known as the American Society for Testing and Materials).\nFor the purposes of this evaluation, any biocide or combination of biocides which prevents moderate (or worse) mildew growth for an outdoor exposure period of at least 9 months is considered to have passed the weathering test."}, "[1]": {"test_system": "Aspergillus niger, also known as ATCC 6275", "assay": "MIC by spiral plater (spiral gradient endpoint) and Berenbaum FIC synergy against A. niger", "format": "cell-based", "conditions": "for MIC ppm, average of spiral plater replications: malt agar, 48 hours at 28° C., ppm of active fungicide, mean of twelve replications", "description": "A method for assessing synergy of a multi-component mixture having biologically active components is described in a technical article by M. C. Berenbaum entitled “Synergy, additivism and antagonism in immunosuppression”, which was published in the Journal of Clinical Experimental Immunology. See Clinical Exp. Immunol. 28, p. 1-18 (1977).\nIn the method, the dose of each agent which provides a synergistic or antagonistic effect in the overall biological effect of a mixture against a particular organism is expressed as a fraction of the dose that causes the effect when the respective agent is tested alone (hereinafter referred to as “dose of X/Xe”, “Fractional Inhibitory Concentration of agent X” or “FICX”). If the sum of the FICX's for a combination of active ingredients in a mixture is 1, the combination is additive in its effect. If the sum is less than one, the combination is synergistic. If the sum is greater than one, the combination is antagonistic. The general relationship (which may be an equality or an inequality) expressed for multi-component mixtures of biologically active components is herein designated Equation 1, as follows: […]\nIn order to apply the Berenbaum method to compositions of the invention, mixtures of fungicidal agents are prepared. The fungicidal activity of each of the mixtures is determined and expressed in terms of a minimum inhibitory concentration, which is just sufficient to inhibit the growth of a given microbe (hereinafter referred to “MIC”) for each of the mixtures. These MICs are subsequently used to calculate FICX for each agent X of a particular mixture. All of the FICX 's for each mixture (also known as the doses of X/Xe for the mixture) are summed, and the criteria for synergism, additivism and antagonism (as set forth above in Equation 1) are used to assess the mixture.\nMinimum Inhibitory Concentrations (hereinafter referred to as “MIC”) for various mixtures of biocides were determined against spore suspensions of the fungus Aspergillus niger, also known as ATCC 6275 (hereinafter referred to as “A. niger”). […]"}, "[2]": {"test_system": "Aureobasidium pullulans, also known as ATCC 9348", "assay": "MIC by spiral plater and Berenbaum FIC synergy against A. pullulans", "format": "cell-based", "conditions": "mean of twelve replications"}, "[3]": {"conditions": "0.2 mass % biocide (0.2 mass % active)"}, "[4]": {"conditions": "0.22 mass % biocide (0.22 mass % active)"}, "[5]": {"conditions": "0.23 mass % biocide (0.23 mass % active)"}, "[6]": {"conditions": "4.0 mass % biocide (4.0 mass % active)"}}, "data": [{"compound": "COC(=O)Nc1nc2ccccc2[nH]1", "note": "[98% BCM, methyl-N-benzimidazol-2-ylcarbamate]", "values": [{"measurement": "Mildew Growth 3 Months", "setting": "mildew; [3]", "result": 5}, {"measurement": "Mildew Growth 6 Months", "setting": "mildew; [3]", "result": 1}, {"measurement": "Mildew Growth 9 Months", "setting": "mildew; [3]", "result": 2}, {"measurement": "Mildew Growth 12 Months", "setting": "mildew; [3]", "result": 4}]}, {"compound": "COC(=O)Nc1nc2ccccc2[nH]1", "note": "[BCM, 2-(methoxycarbonylamino)benzimidazole]", "values": [{"measurement": "MIC", "setting": "[1]; Aspergillus niger, ATCC6275, pure BCM, read-out: MIC, average of values for Mixtures No. 2 and 3", "result": 2.6, "unit": "mg/L"}]}, {"compound": "O=C1C2CC=CCC2C(=O)N1SC(Cl)(Cl)Cl", "note": "(stereo not drawn) [Captan]", "values": [{"measurement": "Mildew Growth 3 Months", "setting": "mildew; [4]", "result": 9}, {"measurement": "Mildew Growth 6 Months", "setting": "mildew; [4]", "result": 1}, {"measurement": "Mildew Growth 9 Months", "setting": "mildew; [4]", "result": 2}, {"measurement": "Mildew Growth 12 Months", "setting": "mildew; [4]", "result": 4}]}, {"compound": "N#Cc1c(Cl)c(Cl)c(Cl)c(C#N)c1Cl", "note": "[Chlorothalonil]", "values": [{"measurement": "Mildew Growth 3 Months", "setting": "mildew; [3]", "result": 9}, {"measurement": "Mildew Growth 6 Months", "setting": "mildew; [3]", "result": 2}, {"measurement": "Mildew Growth 9 Months", "setting": "mildew; [3]", "result": 0}, {"measurement": "Mildew Growth 12 Months", "setting": "mildew; [3]", "result": 3}]}, {"compound": "O=C1c2ccccc2C(=O)N1SC(Cl)(Cl)Cl", "note": "[Folpet]", "values": [{"measurement": "Mildew Growth 3 Months", "setting": "mildew; [5]", "result": 10}, {"measurement": "Mildew Growth 6 Months", "setting": "mildew; [5]", "result": 2}, {"measurement": "Mildew Growth 9 Months", "setting": "mildew; [5]", "result": 0}, {"measurement": "Mildew Growth 12 Months", "setting": "mildew; [5]", "result": 0}]}, {"compound": "CCCCNC(=O)OCC#CI", "note": "[IPBC, 3-iodo-2-propynyl butyl carbamate]", "values": [{"measurement": "MIC ppm, average of spiral plater replications", "setting": "[1]", "result": 0.7, "unit": "ppm"}]}, {"compound": "Zinc Borate [99% Zinc Borate]", "values": [{"measurement": "Mildew Growth 3 Months", "setting": "mildew; [6]", "result": 8}, {"measurement": "Mildew Growth 6 Months", "setting": "mildew; [6]", "result": 2}, {"measurement": "Mildew Growth 9 Months", "setting": "mildew; [6]", "result": 6}, {"measurement": "Mildew Growth 12 Months", "setting": "mildew; [6]", "result": 5}]}, {"compound": "zinc borate [Mixture No. 4]", "values": [{"measurement": "MIC ppm, average of spiral plater replications", "setting": "[2]", "result": "> 1000", "unit": "ppm"}]}, {"compound": "zinc borate [ZB]", "values": [{"measurement": "MIC ppm, average of spiral plater replications", "setting": "[1]", "result": 12, "unit": "ppm"}]}]}
